Key:
Test in all cases: relative viability (nuclei count vs DMSO), 5 days (fraction); higher = more cells survive
XMD13-2 + Luminespib = compound: C1CC1C(=O)NC2=NNC3=C2C=CC(=C3)C4=CC(=CC=C4)C(=O)NC5CC5 [XMD13-2] + CCNC(=O)c1noc(-c2cc(C(C)C)c(O)cc2O)c1-c1ccc(CN2CCOCC2)cc1 [Luminespib] (partner 0.01 µM)
Procedure, shortened: (§1)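 After 5 days of treatment, lung cancer cells in 1536-well plates were fixed and stained in a single step (final 0.05% Triton X-100, 1% formaldehyde, 1 ug/ml Hoechst) and their nuclei counted on 4× images. Treatment had been applied by pin tool the day after seeding as one drug alone or as a fixed anchor-drug dose with five library-drug doses (not always all listed) in √10 steps. Relative viability is the nuclei count of treated wells divided by that of vehicle wells, and values are medians of duplicate plates.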

XMD13-2 + Olaparib = compound: C1CC1C(=O)NC2=NNC3=C2C=CC(=C3)C4=CC(=CC=C4)C(=O)NC5CC5 [XMD13-2] + O=C(c1cc(Cc2n[nH]c(=O)c3ccccc23)ccc1F)N1CCN(C(=O)C2CC2)CC1 [Olaparib] (partner 8 µM)
Procedure, shortened: as §1

ALW-II-49-7 + Olaparib = compound: Cc1ccc(C(=O)Nc2cccc(C(F)(F)F)c2)cc1Nc1cncc(C(N)=O)c1 [ALW-II-49-7] + O=C(c1cc(Cc2n[nH]c(=O)c3ccccc23)ccc1F)N1CCN(C(=O)C2CC2)CC1 [Olaparib] (partner 8 µM)
Procedure, shortened: as §1

NCI-H2023
relative viability (XMD13-2 + Luminespib; first compound 0.05 µM): 0.884 | relative viability (XMD13-2 + Luminespib; first compound 0.1581 µM): 0.703 | relative viability (XMD13-2 + Luminespib; first compound 0.5 µM): 0.954 | relative viability (XMD13-2 + Luminespib; first compound 1.581 µM): 0.712 | relative viability (XMD13-2 + Luminespib; first compound 5 µM): 0.913 | relative viability (XMD13-2 + Olaparib; first compound 0.05 µM): 0.567 | relative viability (XMD13-2 + Olaparib; first compound 0.1581 µM): 0.472 | relative viability (XMD13-2 + Olaparib; first compound 0.5 µM): 0.504 | relative viability (XMD13-2 + Olaparib; first compound 1.581 µM): 0.492 | relative viability (XMD13-2 + Olaparib; first compound 5 µM): 0.507 | relative viability (ALW-II-49-7 + Olaparib; first compound 0.08 µM): 0.458 | relative viability (ALW-II-49-7 + Olaparib; first compound 0.253 µM): 0.543 | relative viability (ALW-II-49-7 + Olaparib; first compound 0.8 µM): 0.649 | relative viability (ALW-II-49-7 + Olaparib; first compound 2.53 µM): 0.451 | relative viability (ALW-II-49-7 + Olaparib; first compound 8 µM): 0.424

EBC-1
relative viability (XMD13-2 + Olaparib; first compound 0.05 µM): 0.768 | relative viability (XMD13-2 + Olaparib; first compound 0.1581 µM): 0.78 | relative viability (XMD13-2 + Olaparib; first compound 0.5 µM): 0.837 | relative viability (XMD13-2 + Olaparib; first compound 1.581 µM): 0.545 | relative viability (XMD13-2 + Olaparib; first compound 5 µM): 0.277 | relative viability (ALW-II-49-7 + Olaparib; first compound 0.08 µM): 0.724 | relative viability (ALW-II-49-7 + Olaparib; first compound 0.253 µM): 0.794 | relative viability (ALW-II-49-7 + Olaparib; first compound 0.8 µM): 0.676 | relative viability (ALW-II-49-7 + Olaparib; first compound 2.53 µM): 0.646 | relative viability (ALW-II-49-7 + Olaparib; first compound 8 µM): 0.688

NCI-H1666
relative viability (XMD13-2 + Luminespib; first compound 0.05 µM): 1 | relative viability (XMD13-2 + Luminespib; first compound 0.1581 µM): 0.992 | relative viability (XMD13-2 + Luminespib; first compound 0.5 µM): 0.965 | relative viability (XMD13-2 + Luminespib; first compound 1.581 µM): 1.03 | relative viability (XMD13-2 + Luminespib; first compound 5 µM): 1.01 | relative viability (XMD13-2 + Olaparib; first compound 0.05 µM): 0.752 | relative viability (XMD13-2 + Olaparib; first compound 0.1581 µM): 0.736 | relative viability (XMD13-2 + Olaparib; first compound 0.5 µM): 0.793 | relative viability (XMD13-2 + Olaparib; first compound 1.581 µM): 0.742 | relative viability (XMD13-2 + Olaparib; first compound 5 µM): 0.777 | relative viability (ALW-II-49-7 + Olaparib; first compound 0.08 µM): 0.692 | relative viability (ALW-II-49-7 + Olaparib; first compound 0.253 µM): 0.798 | relative viability (ALW-II-49-7 + Olaparib; first compound 0.8 µM): 0.684 | relative viability (ALW-II-49-7 + Olaparib; first compound 2.53 µM): 0.738 | relative viability (ALW-II-49-7 + Olaparib; first compound 8 µM): 0.728

NCI-H1975
relative viability (XMD13-2 + Luminespib; first compound 0.05 µM): 0.169 | relative viability (XMD13-2 + Luminespib; first compound 0.1581 µM): 0.253 | relative viability (XMD13-2 + Luminespib; first compound 0.5 µM): 0.172 | relative viability (XMD13-2 + Luminespib; first compound 1.581 µM): 0.197 | relative viability (XMD13-2 + Luminespib; first compound 5 µM): 0.191 | relative viability (XMD13-2 + Olaparib; first compound 0.05 µM): 0.89 | relative viability (XMD13-2 + Olaparib; first compound 0.1581 µM): 0.798 | relative viability (XMD13-2 + Olaparib; first compound 0.5 µM): 0.828 | relative viability (XMD13-2 + Olaparib; first compound 1.581 µM): 0.871 | relative viability (XMD13-2 + Olaparib; first compound 5 µM): 0.792 | relative viability (ALW-II-49-7 + Olaparib; first compound 0.08 µM): 0.739 | relative viability (ALW-II-49-7 + Olaparib; first compound 0.253 µM): 0.845 | relative viability (ALW-II-49-7 + Olaparib; first compound 0.8 µM): 0.793 | relative viability (ALW-II-49-7 + Olaparib; first compound 2.53 µM): 0.682 | relative viability (ALW-II-49-7 + Olaparib; first compound 8 µM): 0.683

NCI-H2170
relative viability (XMD13-2 + Luminespib; first compound 0.05 µM): 0.506 | relative viability (XMD13-2 + Luminespib; first compound 0.1581 µM): 0.515 | relative viability (XMD13-2 + Luminespib; first compound 0.5 µM): 0.776 | relative viability (XMD13-2 + Luminespib; first compound 1.581 µM): 0.55 | relative viability (XMD13-2 + Luminespib; first compound 5 µM): 0.908 | relative viability (XMD13-2 + Olaparib; first compound 0.05 µM): 0.663 | relative viability (XMD13-2 + Olaparib; first compound 0.1581 µM): 0.554 | relative viability (XMD13-2 + Olaparib; first compound 0.5 µM): 0.631 | relative viability (XMD13-2 + Olaparib; first compound 1.581 µM): 0.581 | relative viability (XMD13-2 + Olaparib; first compound 5 µM): 0.601 | relative viability (ALW-II-49-7 + Olaparib; first compound 0.08 µM): 0.76 | relative viability (ALW-II-49-7 + Olaparib; first compound 0.253 µM): 0.595 | relative viability (ALW-II-49-7 + Olaparib; first compound 0.8 µM): 0.562 | relative viability (ALW-II-49-7 + Olaparib; first compound 2.53 µM): 0.535 | relative viability (ALW-II-49-7 + Olaparib; first compound 8 µM): 0.603

NCI-H1355
relative viability (XMD13-2 + Luminespib; first compound 0.05 µM): 0.723 | relative viability (XMD13-2 + Luminespib; first compound 0.1581 µM): 0.726 | relative viability (XMD13-2 + Luminespib; first compound 0.5 µM): 0.732 | relative viability (XMD13-2 + Luminespib; first compound 1.581 µM): 0.725 | relative viability (XMD13-2 + Luminespib; first compound 5 µM): 0.759 | relative viability (XMD13-2 + Olaparib; first compound 0.05 µM): 0.755 | relative viability (XMD13-2 + Olaparib; first compound 0.1581 µM): 0.716 | relative viability (XMD13-2 + Olaparib; first compound 0.5 µM): 0.807 | relative viability (XMD13-2 + Olaparib; first compound 1.581 µM): 0.762 | relative viability (XMD13-2 + Olaparib; first compound 5 µM): 0.773 | relative viability (ALW-II-49-7 + Olaparib; first compound 0.08 µM): 0.68 | relative viability (ALW-II-49-7 + Olaparib; first compound 0.253 µM): 0.822 | relative viability (ALW-II-49-7 + Olaparib; first compound 0.8 µM): 0.846 | relative viability (ALW-II-49-7 + Olaparib; first compound 2.53 µM): 0.655 | relative viability (ALW-II-49-7 + Olaparib; first compound 8 µM): 0.651

Source: the supplement of paper PMC10307832
